Tested on: HMG-CoA reductase
Experiment: HMG-CoA reductase synthesis rate ([35S]methionine incorporation)
Type: cell-based
Settings: 10 μg/ml
Method: Measurement of HMGal and HMG-CoA Reductase Synthesis Rates Cells plated into 60×15 mm dishes were grown in 5% LPS MEM with 0.25 mg/ml active geneticin for 24 hours. These cells were washed with PBS and grown for 24 hours in 5% LPS MEM supplemented with 0.25 mg/ml active geneticin, 10 μM compactin and 0.1 mM mevalonate. After 24 hours, the medium was removed, the cells were washed with PBS and the medium was replaced with methionine-free MEM supplemented with 5% LPS, 250 μg/ml of active geneticin, 10 μM compactin, and 0.1 mM mevalonate. In addition, 20 mM mevalonate or 10 μg/ml farnesyl acetate was included in those plates previously treated with these compounds. […] Cells were washed, lysed and the HMGal and HMG-CoA reductase proteins were immunoprecipitated, subjected to SDS-PAGE and quantified. […]
Farnesyl compounds reduce translation and stimulate degradation of HMG-CoA reductase and HMGal A reduction in HMGal specific activity triggered by the farnesyl compounds could have been the result of a decrease in HMGal synthesis, an increase in HMGal degradation, or a combination of changes in both the synthesis and degradation rates. In order to test whether the farnesyl compounds impact synthesis, the rates of HMGal, HMG-CoA reductase, and total cellular protein synthesis were measured by [^35 S]methionine incorporation in the presence and absence of 10 μg/ml farnesyl acetate.

SMILES: CC(=O)OCC=C(C)CCC=C(C)CCC=C(C)C [farnesyl acetate]
- reduction in the rate of HMG-CoA reductase synthesis: 60%

Reference: US5475029A, “Farnesyl compounds as cholesterol lowering agents” (The Board of Trustees of the Leland Stanford Junior …, priority 1993, dated 1995)
